Measured values reported in patent US11584734B2, “Tricyclic compounds as histone methyltransferase inhibitors” (GLOBAL BLOOD THERAPEUTICS, INC., priority 2017, dated 2023).
Counter-ions that a name gives are not always drawn.

Target: T1, G9a (Homo sapiens, UniProt Q96KQ7)
T1 sequence (Q96KQ7 1-1210): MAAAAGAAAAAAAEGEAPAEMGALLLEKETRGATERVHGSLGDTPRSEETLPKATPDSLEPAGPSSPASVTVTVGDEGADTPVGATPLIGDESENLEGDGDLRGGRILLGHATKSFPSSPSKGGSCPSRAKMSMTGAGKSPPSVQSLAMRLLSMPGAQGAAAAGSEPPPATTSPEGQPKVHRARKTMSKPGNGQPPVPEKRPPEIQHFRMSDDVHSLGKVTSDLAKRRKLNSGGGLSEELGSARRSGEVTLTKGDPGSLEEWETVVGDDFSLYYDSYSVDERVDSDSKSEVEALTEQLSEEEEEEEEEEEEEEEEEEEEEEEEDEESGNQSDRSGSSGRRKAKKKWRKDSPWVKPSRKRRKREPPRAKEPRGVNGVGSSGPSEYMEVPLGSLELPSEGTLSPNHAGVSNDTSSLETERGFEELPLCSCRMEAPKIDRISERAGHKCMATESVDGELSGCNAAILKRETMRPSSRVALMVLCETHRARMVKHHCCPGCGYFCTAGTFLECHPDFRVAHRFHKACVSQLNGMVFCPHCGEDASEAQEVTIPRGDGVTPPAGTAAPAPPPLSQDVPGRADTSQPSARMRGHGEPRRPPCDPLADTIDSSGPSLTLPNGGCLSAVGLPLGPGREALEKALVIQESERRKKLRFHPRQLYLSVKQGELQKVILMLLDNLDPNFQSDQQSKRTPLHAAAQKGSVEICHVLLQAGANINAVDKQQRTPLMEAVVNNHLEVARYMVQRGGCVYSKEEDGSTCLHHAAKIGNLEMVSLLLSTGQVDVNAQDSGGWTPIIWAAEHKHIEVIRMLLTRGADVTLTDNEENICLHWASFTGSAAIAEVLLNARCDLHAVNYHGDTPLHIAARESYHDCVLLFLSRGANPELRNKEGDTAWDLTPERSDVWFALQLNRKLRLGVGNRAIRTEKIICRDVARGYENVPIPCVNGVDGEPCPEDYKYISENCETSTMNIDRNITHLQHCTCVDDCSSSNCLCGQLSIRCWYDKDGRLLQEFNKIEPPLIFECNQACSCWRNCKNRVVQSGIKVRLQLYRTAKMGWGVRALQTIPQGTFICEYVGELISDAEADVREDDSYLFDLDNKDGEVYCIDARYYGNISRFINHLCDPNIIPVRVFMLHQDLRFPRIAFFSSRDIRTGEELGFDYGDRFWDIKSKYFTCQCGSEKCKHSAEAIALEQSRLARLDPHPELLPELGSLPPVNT
Experiment: G9a AlphaLISA enzymatic activity assay
Format: biochemical
Conditions: negative log of IC50 in molar, 0.15 nM G9a, 15 uM S-adenosyl-methionine, 100 nM biotinylated histone 3 peptide (1-21)
Description: The G9a AlphaLISA assay was used to detect the methyl modifications of a biotinylated histone H3 peptide by the compounds. These modifications are done by the histone methyl transferase activity of the G9a enzyme. The assay consists of reading a chemiluminescent signal at 615 nm; this signal is generated by a laser excitation at 680 nm that transfers a reactive singlet oxygen between the donor beads and acceptor beads. Donor beads are streptavidin conjugated and bind to the biotin on the peptide. Acceptor beads are conjugated with an antibody that recognizes the specific G9a methyl mark on the peptide. If there is a methyl mark on the peptide, the acceptor beads will bind to the peptide. Upon binding, the acceptor beads will be in close proximity (<200 nm) of the donor beads and when the donor beads are excited, the transfer of the oxygen can occur and a strong signal will be generated. If there is no methyl mark, the interaction between beads will not occur and signal will be at background levels.
For the assay, the following buffer was used to set up reactions: 50 mM Tris-HCl pH9, 50 mM NaCl, 0.01% Tween-20 and 1 mM DTT (added fresh prior to starting the reactions). […] The reaction is incubated at rt for 1 hour and subsequently quenched by the addition of the acceptor beads (anti-H3k9me2 AlphaLISA acceptor beads, PerkinElmer #AL117) at a final concentration of 20 ug/mL. The acceptor beads are incubated for 1 hour. After 1 hour, the donor beads are added at a final concentration of 20 ug/mL (Alpha Streptavidin donor beads, PerkinElmer #6760002). Donor beads are incubated for 0.5 hours. Both donor and acceptor beads are resuspended in AlphaLISA 5X Epigenetics Buffer 1 Kit (PerkinElmer #AL008) prior to addition to the reaction. All manipulations and incubations with the donor and acceptor beads are done in subdued light. Signal is detected in an EnVision plate reader in Alpha mode. See ACS Med Chem Lett. 2014; 5(2):205-9.
Percent inhibition was calculated for each compound dilution and the concentration that produced 50% inhibition was calculated. This value is presented as the pIC50, which is the negative log of the IC50 value in molar.

| SMILES | IC50 [nM] |
| --- | --- |
| CCN(CCCOc1cc2nc3c(c(NC)c2cc1OC)CCC3)CCOC [Example 58, 6-{3-[ethyl(2-methoxyethyl)amino]propoxy}-7-methoxy-N-methyl-1H,2H,3H-cyclopenta[b]quinolin-9-amine] | 2750 |
| CNc1c2c(nc3cc(OCCCN4CCCC4)c(OC)cc13)C1CCCC2C1 (centres unmarked) [Example 36, 7-methoxy-N-methyl-6-[3-(pyrrolidin-1-yl)propoxy]-3-azatetracyclo[10.3.1.0^{2,11}.0^{4,9}]hexadeca-2,4,6,8,10-pentaen-10-amine] | 19.5 |
| CNc1c2c(nc3cc(OCCCN4C5CCCC4CC5)c(OC)cc13)CCC2 [Example 69, 6-(3-{8-azabicyclo[3.2.1]octan-8-yl}propoxy)-7-methoxy-N-methyl-1H,2H,3H-cyclopenta[b]quinolin-9-amine] | 2690 |
| CNc1c2c(nc3cc(OCCCN(C)C)c(OC)cc13)CCC2 [Example 71, 6-[3-(dimethylamino)propoxy]-7-methoxy-N-methyl-1H,2H,3H-cyclopenta[b]quinolin-9-amine] | 40.7 |
| COc1cc2c(NC(C)C)c3c(nc2cc1OCCOCCN(C)C)CCC3 [Example 45, 6-{2-[2-(dimethylamino)ethoxy]ethoxy}-7-methoxy-N-(propan-2-yl)-1H,2H,3H-cyclopenta[b]quinolin-9-amine] | 17.4 |
| CCOCCNc1c2c(nc3cc(COCCN4CCCC4)c(OC)cc13)CCC2 [Example 41, N-(2-ethoxyethyl)-7-methoxy-6-{[2-(pyrrolidin-1-yl)ethoxy]methyl}-1H,2H,3H-cyclopenta[b]quinolin-9-amine] | 33.9 |
| CNc1c2c(nc3cc(OCCCN4C5CCC4CC5)c(OC)cc13)CCC2 [Example 47, 6-(3-{7-azabicyclo[2.2.1]heptan-7-yl}propoxy)-7-methoxy-N-methyl-1H,2H,3H-cyclopenta[b]quinolin-9-amine] | 1350 |
| CCOCCNc1c2c(nc3cc(OCCCN(C)CCF)c(OC)cc13)CCC2 [Example 57, N-(2-ethoxyethyl)-6-{3-[(2-fluoroethyl)(methyl)amino]propoxy}-7-methoxy-1H,2H,3H-cyclopenta[b]quinolin-9-amine] | 1480 |
| CCNc1c2c(nc3cc(OCCCN4CCCC4)c(OC)cc13)CC(C)(C)C2 [Example 6, N-ethyl-7-methoxy-2,2-dimethyl-6-[3-(pyrrolidin-1-yl)propoxy]-1H,2H,3H-cyclopenta[b]quinolin-9-amine] | 38 |
| COc1cc2c(NC3CCCNC3)c3c(nc2cc1OCCCN(C)C)CCC3 (centres unmarked) [Example 73, N-{6-[3-(dimethylamino)propoxy]-7-methoxy-1H,2H,3H-cyclopenta[b]quinolin-9-yl}piperidin-3-amine] | 1.45 |
| COCCNc1c2c(nc3cc(OCCCN4CCCC4)c(OC)cc13)CCC2(C)C [Example 23, 7-methoxy-N-(2-methoxyethyl)-1,1-dimethyl-6-[3-(pyrrolidin-1-yl)propoxy]-1H,2H,3H-cyclopenta[b]quinolin-9-amine] | 468 |
| CNc1c2c(nc3cc(OCCCN4CCCC4)c(OC(F)(F)F)cc13)CCC2 [Example 48, N-methyl-6-[3-(pyrrolidin-1-yl)propoxy]-7-(trifluoromethoxy)-1H,2H,3H-cyclopenta[b]quinolin-9-amine] | 603 |
| COc1cc2c(NCC3CC3)c3c(nc2cc1OCCOCCN(C)C)CCC3 [Example 63, N-(cyclopropylmethyl)-6-{2-[2-(dimethylamino)ethoxy]ethoxy}-7-methoxy-1H,2H,3H-cyclopenta[b]quinolin-9-amine] | 18.2 |

Next, values leading:

| IC50 [nM] | SMILES |
| --- | --- |
| 19.5 | COc1cc2c(NCCCOC(C)C)c3c(nc2cc1OCCCN1CCCC1)CCC3 [Example 17, 7-methoxy-N-[3-(propan-2-yloxy)propyl]-6-[3-(pyrrolidin-1-yl)propoxy]-1H,2H,3H-cyclopenta[b]quinolin-9-amine] |
| 97.7 | FC(F)Oc1cc2c(NCC3CC3)c3c(nc2cc1OCCCN1CCCC1)CCC3 [Example 42, N-(cyclopropylmethyl)-7-(difluoromethoxy)-6-[3-(pyrrolidin-1-yl)propoxy]-1H,2H,3H-cyclopenta[b]quinolin-9-amine] |
| 776 | COCCNc1c2c(nc3cc(OCCCN4CCCC4)c(OC(F)(F)F)cc13)CCC2 [Example 50, N-(2-methoxyethyl)-6-[3-(pyrrolidin-1-yl)propoxy]-7-(trifluoromethoxy)-1H,2H,3H-cyclopenta[b]quinolin-9-amine] |
| 12 | COc1cc2c(NCc3ccn[nH]3)c3c(nc2cc1OCCCN1CCCC1)CCC3 [Example 9, 7-methoxy-N-[(1H-pyrazol-5-yl)methyl]-6-[3-(pyrrolidin-1-yl)propoxy]-1H,2H,3H-cyclopenta[b]quinolin-9-amine] |
| 40.7 | COc1cc2c(NCC3CC3)c3c(nc2cc1OCC(O)CN1CCCC1)CCC3 (centres unmarked) [Example 40, 1-({9-[(cyclopropylmethyl)amino]-7-methoxy-1H,2H,3H-cyclopenta[b]quinolin-6-yl}oxy)-3-(pyrrolidin-1-yl)propan-2-ol] |
| 10 | COc1cc2c(NC[C@H]3CCOC3)c3c(nc2cc1OCCCN1CCCC1)CCC3 [Example 28, 7-methoxy-N-{[(3R)-oxolan-3-yl]methyl}-6-[3-(pyrrolidin-1-yl)propoxy]-1H,2H,3H-cyclopenta[b]quinolin-9-amine] |
| 21.9 | COc1cc2c(NC[C@H]3CCCO3)c3c(nc2cc1OCCCN1CCCC1)CCC3 [Example 18, 7-methoxy-N-{[(2R)-oxolan-2-yl]methyl}-6-[3-(pyrrolidin-1-yl)propoxy]-1H,2H,3H-cyclopenta[b]quinolin-9-amine] |
| 57.5 | COc1cc2c(NCCC(C)(C)O)c3c(nc2cc1OCCCN1CCCC1)CCCCC3 [Example 39, 4-({2-methoxy-3-[3-(pyrrolidin-1-yl)propoxy]-6H,7H,8H,9H,10H-cyclohepta[b]quinolin-11-yl}amino)-2-methylbutan-2-ol] |
| 35.5 | CCNc1c2c(nc3cc(OCCCN4CCCC4)c(OC(F)F)cc13)CCC2 [Example 30, 7-(difluoromethoxy)-N-ethyl-6-[3-(pyrrolidin-1-yl)propoxy]-1H,2H,3H-cyclopenta[b]quinolin-9-amine] |
| 646 | CCNc1c2c(nc3cc(OCCCN4CCCC4)c(OC(F)(F)F)cc13)CCC2 [Example 49, N-ethyl-6-[3-(pyrrolidin-1-yl)propoxy]-7-(trifluoromethoxy)-1H,2H,3H-cyclopenta[b]quinolin-9-amine] |
| 22.4 | COc1cc2c(NC[C@H](C)OC)c3c(nc2cc1OCCCN1CCCC1)CCC3 [Example 15, 7-methoxy-N-[(2S)-2-methoxypropyl]-6-[3-(pyrrolidin-1-yl)propoxy]-1H,2H,3H-cyclopenta[b]quinolin-9-amine] |
| 6.17 | COC[C@H](C)Nc1c2c(nc3cc(OCCCN4CCCC4)c(OC)cc13)CCC2 [Example 4] |
| 158 | Oc1cc2c(NCC3CC3)c3c(nc2cc1OCCCN1CCCC1)CCC3 [Example 2, dihydrochloride] |
